The values below come from patent publication US8211479B2, “Combinations of vasoactive substances with estrogens and their use in the treatment of female sexual dysfunctions” (Indena S.p.A., priority 2007, dated 2012).

One test has as its target PDE5A1 (Homo sapiens, UniProt O76074).
For test [1], the system named is arterioles and precapillary arteries. The following applies: topically administered; increasing blood flow and tissue perfusion; cited from earlier work.

For the molecule `COc1ccc(-c2oc3c(CC=C(C)C)c(OCCO)cc(O)c3c(=O)c2OCCO)cc1` [Compound 1, 3,7-O-di-(2-hydroxyethyl)icaritin], the “inhibition of phosphodiesterase cGMP (in words)” value against PDE5A1 was “powerful inhibitors”. As to Visnadin, the “vasokinetic action on arterioles and precapillary arteries (in words)” value in test [1] is listed as “marked vasokinetic action”.

`COc1ccc(-c2oc3c(CC=C(C)C)c(OCCO)cc(O)c3c(=O)c2O[C@@H]2O[C@@H](C)[C@H](O)[C@@H](O)[C@H]2O)cc1` [Compound 2, 7-O-hydroxyethyl-icariside II]: on PDE5A1, the “inhibition of phosphodiesterase cGMP (in words)” value was “powerful inhibitors”.
